Measurements: US20240423995A1, “C-KIT INHIBITORS AND USES FOR TREATING AND PREVENTING INFLAMMATORY CONDITIONS” (GEORGETOWN UNIVERSITY, priority 2023, published 2024)

Key:
mast cells (blood) = experiment: MC maturation in blood of transgenic APP mice by flow cytometry; type: in vivo; conditions: six weeks, vs DMSO
Method: 12-month-old transgenic APP mice were injected intraperitoneally with either 5 mg/kg BK40143 or DMSO for six weeks before whole-blood samples were collected into tubes with 1000 U/mL heparin. Blood samples were then treated with the three flow-conjugated antibodies and analyzed for maturation of mast cell progenitors to mature mast cells, as described in Examples 3 and 4. Group differences were compared using an unpaired Student's t-test.
(§1) 12-month-old transgenic APP mice were injected intraperitoneally with either 25 mg/kg BK40195 or DMSO for six weeks before having whole-blood samples collected into tubes containing 1000 U/mL heparin. Blood samples were then treated with the three flow-conjugated antibodies and analyzed for maturation of mast cell progenitors to mature mast cells, as described in Example 5. Differences were compared using an unpaired Student's t-test.
as §1, with “45” for “25”, “BK40197” for “BK40195”

SRC = biological target: T1, SRC (Homo sapiens, UniProt P12931); experiment: KINOMEscan competition binding screen, SRC; conditions: for remaining binding at 10 µM: read-out: % Ctrl @ 10 μM
T1 construct: purchased Eurofins DiscoverX Corporation
Method: (§2) The KINOMEscan™ screening platform (Eurofins DiscoverX Corporation, San Diego, USA) was performed using an active site-directed competition binding assay to quantitatively measure interactions between BK40143, BK40197, BK40195, and BK40196 and more than 450 human kinases and disease relevant mutant variants. […] Screening “hits” were identified by measuring the amount of kinase captured in test (BK40143, BK40197, BK40195, and BK40196) versus control samples by using a quantitative and ultra-sensitive qPCR method that detects the associated DNA label. BK40143, BK40197, BK40195, and BK40196 were screened at 10 μM concentration, and results for primary screen binding interactions were reported as ‘% Ctrl’ (POC), where lower numbers indicate stronger hits and calculated as follows:
(§3) [formula] • test compound=BK40143 or BK40197 or BK40195 or BK40196 • negative control=DMSO (100% Ctrl) • positive control=control compound (0% Ctrl)
(§4) Based on screening data of profiled compounds, a proportional relationship between primary screening results and corresponding compound/target affinities can be described as binding constants (Kd values) for the indicated ranges of percent of control (PoC) values, with tighter binding (higher affinity) interactions associated with lower PoC values, and weaker binding (lower affinity) associated with higher PoC values. Briefly, kinase-tagged T7 phage strains were grown in parallel in 24-well blocks in an E. coli host derived from the BL21 strain. E. coli were grown to log-phase and infected with T7 phage from a frozen stock (multiplicity of infection=0.4) and incubated with shaking at 32° C. until lysis (90-150 minutes). The lysates were centrifuged (6,000×g) and filtered ([…]) to remove cell debris. The remaining kinases were produced in HEK-293 cells and subsequently tagged with DNA for qPCR detection. Streptavidin-coated magnetic beads were treated with biotinylated small molecule ligands for 30 minutes at room temperature to generate affinity resins for kinase assays. The liganded beads were blocked with excess biotin and washed with blocking buffer (SeaBlock (Pierce), 1% BSA, 0.05% Tween 20, 1 mM DTT) to remove unbound ligand and to reduce non-specific phage binding. Binding reactions were assembled by combining kinases, liganded affinity beads, and test compounds in 1× binding buffer (20% SeaBlock, 0.17×PBS, 0.05% Tween 20, 6 mM DTT). Test compounds were prepared as 100× stocks in 100% DMSO and directly diluted into the assay. All reactions were performed in polypropylene 384-well plates in a final volume of 0.02 ml. The assay plates were incubated at room temperature with shaking for 1 hour and the affinity beads were washed with wash buffer (1×PBS, 0.05% Tween 20). The beads were then re-suspended in elution buffer (1×PBS, 0.05% Tween 20, 0.5 μM non-biotinylated affinity ligand) and incubated at room temperature with shaking for 30 minutes. The kinase concentration in the eluates was measured by qPCR.

SYK = biological target: T2, SYK (Homo sapiens, UniProt P43405); experiment: KINOMEscan competition binding screen, SYK; conditions: for remaining binding at 10 µM: read-out: % Ctrl @ 10 μM
T2 construct: purchased Eurofins DiscoverX Corporation
Method: as §2, §3, §4

LUVA cells = experiment: MC maturation in LUVA cells by flow cytometry (CD117, FceR1); type: cell-based, human; conditions: 100 ng/mL SCF overnight, then 10 nM, 100 nM, 1 μM compound for 48 hours, vs DMSO
Method: A human mast cell (MC) line that arose spontaneously from a culture of non-transformed hematopoietic progenitor cells is described in J Allergy Clin Immunol, 2011, 127:815-22, which is incorporated herein by reference. The cells, termed LUVA cells, are an immortalized human MC line that can be maintained without stem cell factor (SCF) and that display high levels of normally signaling c-kit and FceR1.
The LUVA cells (Kerafast, EG1701-FP) were cultured in StemPro-34 serum-free media with 10% nutrient supplement, 1% L-glutamine, and 1% pen/strep and grown under normal atmospheric conditions (5% CO2). The cells were plated and treated with 100 ng/mL of SCF overnight and then treated with DMSO or an ascending dose of either BK40143, BK40196, or BK40197 for 48 hours, before collection and incubation with two flow-conjugated antibodies (PE anti-mouse CD117 (c-kit) and APC/fire 750 anti-mouse FceR1a) and subsequent analysis via flow cytometry. Group differences were compared using unpaired Student's t-tests.

KIT (V559D, V654A) = biological target: T3, KIT (V559D, V654A) (Homo sapiens, UniProt P10721, V559D/V654A); experiment: KINOMEscan competition binding screen, KIT (V559D, V654A); conditions: for remaining binding at 10 µM: read-out: % Ctrl @ 10 μM
T3 construct: purchased Eurofins DiscoverX Corporation
Method: as §2, §3, §4

KIT autoinhibited = biological target: T4, KIT autoinhibited (Homo sapiens, UniProt P10721); experiment: KINOMEscan competition binding screen, KIT autoinhibited; conditions: for remaining binding at 10 µM: read-out: % Ctrl @ 10 μM
T4 construct: purchased Eurofins DiscoverX Corporation
Method: as §2, §3, §4

T4 sequence (P10721 544-976 limits assumed): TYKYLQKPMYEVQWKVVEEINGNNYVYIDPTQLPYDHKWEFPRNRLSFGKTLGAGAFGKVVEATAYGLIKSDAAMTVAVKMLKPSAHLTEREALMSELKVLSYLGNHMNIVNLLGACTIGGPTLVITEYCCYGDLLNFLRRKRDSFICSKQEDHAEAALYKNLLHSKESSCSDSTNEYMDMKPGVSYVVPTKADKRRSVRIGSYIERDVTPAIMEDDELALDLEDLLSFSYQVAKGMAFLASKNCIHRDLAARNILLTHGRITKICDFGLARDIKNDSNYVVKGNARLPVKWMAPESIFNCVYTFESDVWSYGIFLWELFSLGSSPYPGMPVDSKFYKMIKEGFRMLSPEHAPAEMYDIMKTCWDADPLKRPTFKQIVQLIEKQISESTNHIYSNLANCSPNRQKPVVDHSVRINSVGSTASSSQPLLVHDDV
T3 sequence (P10721 26-976 V559D/V654A): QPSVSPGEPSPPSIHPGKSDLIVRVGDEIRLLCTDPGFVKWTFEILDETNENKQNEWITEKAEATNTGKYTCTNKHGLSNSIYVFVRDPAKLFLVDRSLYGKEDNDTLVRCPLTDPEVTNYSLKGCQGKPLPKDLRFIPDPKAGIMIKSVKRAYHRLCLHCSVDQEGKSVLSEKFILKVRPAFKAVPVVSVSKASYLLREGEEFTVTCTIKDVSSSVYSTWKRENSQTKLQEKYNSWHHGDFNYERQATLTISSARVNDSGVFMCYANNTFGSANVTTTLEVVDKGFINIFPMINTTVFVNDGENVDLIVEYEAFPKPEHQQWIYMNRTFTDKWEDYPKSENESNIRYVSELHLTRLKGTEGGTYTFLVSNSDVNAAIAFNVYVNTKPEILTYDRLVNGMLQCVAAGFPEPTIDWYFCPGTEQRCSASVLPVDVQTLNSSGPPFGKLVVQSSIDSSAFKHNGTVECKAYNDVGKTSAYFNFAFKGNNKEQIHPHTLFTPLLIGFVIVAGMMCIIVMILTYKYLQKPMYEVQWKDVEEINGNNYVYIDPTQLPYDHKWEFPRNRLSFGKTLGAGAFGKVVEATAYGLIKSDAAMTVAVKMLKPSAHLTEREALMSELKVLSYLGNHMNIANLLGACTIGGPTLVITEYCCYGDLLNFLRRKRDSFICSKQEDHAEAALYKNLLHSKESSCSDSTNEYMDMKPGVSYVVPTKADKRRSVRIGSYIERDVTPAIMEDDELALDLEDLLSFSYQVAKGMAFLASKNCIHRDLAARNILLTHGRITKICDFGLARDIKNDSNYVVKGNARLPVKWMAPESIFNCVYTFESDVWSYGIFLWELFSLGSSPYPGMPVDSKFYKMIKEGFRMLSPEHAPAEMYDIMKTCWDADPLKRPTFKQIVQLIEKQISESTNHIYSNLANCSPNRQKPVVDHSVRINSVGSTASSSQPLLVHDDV
T1 sequence (P12931 whole entry): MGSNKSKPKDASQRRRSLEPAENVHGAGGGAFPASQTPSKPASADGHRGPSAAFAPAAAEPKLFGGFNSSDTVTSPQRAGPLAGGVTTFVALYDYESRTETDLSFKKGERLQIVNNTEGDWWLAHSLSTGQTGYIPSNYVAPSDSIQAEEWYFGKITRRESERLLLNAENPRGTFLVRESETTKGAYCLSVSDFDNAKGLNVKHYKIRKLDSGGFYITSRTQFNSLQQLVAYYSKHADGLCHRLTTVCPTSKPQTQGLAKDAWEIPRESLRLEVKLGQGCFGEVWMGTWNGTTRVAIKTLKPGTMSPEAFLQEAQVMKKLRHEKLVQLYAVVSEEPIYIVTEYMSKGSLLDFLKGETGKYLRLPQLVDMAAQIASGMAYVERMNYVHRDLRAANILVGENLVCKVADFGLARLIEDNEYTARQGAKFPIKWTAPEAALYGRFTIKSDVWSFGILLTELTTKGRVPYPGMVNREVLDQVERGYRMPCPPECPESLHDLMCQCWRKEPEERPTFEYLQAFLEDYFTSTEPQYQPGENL

Row | Compound | ratio of immature MCs (CD117 only) to mature MCs (CD117 and FceR1) (mast cells (blood); 5 mg/kg intraperitoneal, p=0.03) | inhibition at 10 µM (SRC) | remaining binding at 10 µM (SRC) | inhibition at 10 µM (SYK) | remaining binding at 10 µM (SYK) | number of immature MCs (CD117 only) compared to mature MCs (CD117 and FceR1) (LUVA cells) | inhibition at 10 µM (KIT (V559D, V654A)) | remaining binding at 10 µM (KIT (V559D, V654A)) | inhibition at 10 µM (KIT autoinhibited) | remaining binding at 10 µM (KIT autoinhibited) | ratio of immature MCs (CD117 only) to mature MCs (CD117 and FceR1) (mast cells (blood); 25 mg/kg intraperitoneal, p=0.04) | ratio of immature MCs (CD117 only) to mature MCs (CD117 and FceR1) (mast cells (blood); 45 mg/kg intraperitoneal, p=0.07)
1 | Cc1cccc(-c2cc3nccc(Nc4ccccc4)c3s2)c1 [BK40143] | significantly increased | 94.7% | 5.3% | 94.5% | 5.5% | significantly increased | 82% | 18% | 31% | 69% |  | 
2 | COc1cccc(Nc2ccnc3cc(-c4cccc(C)c4)sc23)c1 [BK40195] |  | 99.7% | 0.35% | 88% | 12% |  | 97.5% | 2.5% | 78% | 22% | significantly increased | 
3 | Cc1cccc(-c2cc3nccc(Nc4cccc(O)c4)c3s2)c1 [BK40196] |  | 99.9% | 0.1% | 97.7% | 2.3% | significantly increased | 98.7% | 1.3% | 44% | 56% |  | 
4 | Cc1cccc(-c2cc3nccc(N4CCOCC4)c3s2)c1 [BK40197] |  | 19% | 81% | 56% | 44% | significantly increased | 79% | 21% | 48% | 52% |  | significantly increased
